# According to patent US8859508B2, “Application of 5-methyl-1,3-benzenediol or derivatives thereof in the preparation of medicines and functional foods for treatment or prevention of depression” (Kunming Institute of Botany, Chinese Academy of Sciences, priority 2007, dated 2014):
# Legend:
# [1] = test system: serum corticosterone; experiment: Serum corticosterone level (radioimmunoassay), non-stressed and elevated platform stressed rats; type: in vivo, rat
# [2] = test system: Kunming mice; experiment: Tail suspension test (TST) in mice
# [3] = test system: CMS model mice; experiment: FST in chronic unpredictable mild stress (CMS) model mice; type: in vivo, mouse; details: for Immobility time (s) (mean ± SEM): oral once a day for 7 days
# Description: (§1) Kunming mice (Certificate Number: A4CXK(Chuan)2003-16) from the Institute of Experimental Animals, People's Hospital of Sichuan Province, were used. They were 3-4 weeks old at the beginning of experiments and weighed 25-30 g. ORG was prepared as described in Example 1. Animals were divided into experiment groups with different doses, a vehicle control group, and an imipramine group (Sigma, Batch No. 106k1588) as positive control.
# (§2) CMS model: The chronic mild stresses that Kunming mice were subjected to were reversal of circadian rhythm, continuous light, cold, damp bedding, tilt cages, food and water restriction, and restraint. […] The stress period lasted for 8 weeks. In the last week, ORG was administered orally once a day for 7 consecutive days. The behavioral test was carried out 30 min after the last administration. The parameter tested was immobility time in the FST and TST in the CMS model mice. The methods of FST and TST and data analysis were as described above.
# [4] = test system: SD model mice; experiment: FST in sleep deprivation (SD) model mice; type: in vivo, mouse
# Description: as §1, with “beginning of the experiments and” for “beginning of experiments and”, “Batch No. 1061c1588) as positive” for “Batch No. 106k1588) as positive”
# SD model: A modified method with multiple platforms in a water environment was used to establish the SD model in mice. Mice on the platforms were free to eat and drink. However, if it fell asleep, it fell into the water because of the loss of muscle tone. The fallen animal climbed onto the platform again via a tilt pole which propped up the platforms. After 72 h of sleep deprivation, ORG was administered orally 24 h and 5 h before the FST started. The immobility time of animals were recorded. Methods and data analysis were as described above.
# [5] = test system: Kunming mice; experiment: Forced swim test (FST) in mice
# [6] = test system: CMS model mice; experiment: TST in chronic unpredictable mild stress (CMS) model mice; type: in vivo, mouse; details: for Immobility time (s) (mean ± SEM): oral once a day for 7 days
# Description: as §1, §2
# [7] = test system: rats; experiment: Footshock-induced freezing behavior test in rats; type: in vivo, rat; details: i.p. 24 h and 5 h before test
# Description: as §1, with “the experiment” for “experiments”, “drug administration” for “experiment”, “doses of ORG,” for “doses,”, “a diazepam” for “an imipramine”, “(Jinyao Ltd. Co.,” for “(Sigma,”
# Footshock-induced freezing behavior: Animals received an i.p. injection of ORG or vehicle 24 h and 5 h before being placed in a standard conditioning chamber (Med Associates, USA) for a 10 min training session. Two, 4, 6, 8, and 10 min after the onset of the session, a footshock (0.8 mA, 2 s) was delivered through the grid floor of the chamber. The freezing time during the last 5 min were recorded. Rats were placed in the chamber again without footshock 24 h after the first training, and the freezing time was recorded.
# Data analysis: The results of the test are expressed as mean±SEM. One-way ANOVA was used followed by the LSD test with SPSS 11 software. The significance level was set at P<0.05.
# [8] = CMS mice, test 30 min after last dose, 1.25 mg/kg
# [9] = Mus musculus, CMS model mice, ORG oral
smiles,measurement,setting,value
"Cc1cc(O)cc(OC2OC(CO)C(O)C(O)C2O)c1 [ORG, orcinol-1-O-β-D-glucopyranoside]",Concentration of serum corticosterone (ng/ml) (mean ± SEM),"[1]; non-stress rats, i.p., 3.5 mg/kg",166.06 ± 41.90 ng/mL
same,Concentration of serum corticosterone (ng/ml) (mean ± SEM),"[1]; non-stress rats, i.p., 14 mg/kg",70.04 ± 14.75 ng/mL
same,Concentration of serum corticosterone (ng/ml) (mean ± SEM),"[1]; non-stress rats, i.p., 28 mg/kg",63.13 ± 22.21 ng/mL
same,Concentration of serum corticosterone (ng/ml) (mean ± SEM),"[1]; non-stress rats, i.p., blood 1 h after injection, 0.875 mg/kg",209.02 ± 52.77 ng/mL
same,Concentration of serum corticosterone (ng/ml) (mean ± SEM),"[1]; stress rats (elevated platform 30 min, 1 h after i.p. injection), 0.875 mg/kg",349.85 ± 61.75 ng/mL
same,Concentration of serum corticosterone (ng/ml) (mean ± SEM),"[1]; stress rats, i.p., 3.5 mg/kg",263.63 ± 49.14 ng/mL
same,Concentration of serum corticosterone (ng/ml) (mean ± SEM),"[1]; stress rats, i.p., 14 mg/kg",237.63 ± 32.45 ng/mL
same,Concentration of serum corticosterone (ng/ml) (mean ± SEM),"[1]; stress rats, i.p., 28 mg/kg",137.41 ± 26.84 ng/mL
same,ED50,[2]; Mus musculus,~0.73 mg/kg
same,dose of the best efficacy,"[2]; TST mice, ORG i.g. 24 h and 5 h before test",12 mg/kg
same,Immobility time (s) (mean ± SEM),"[2]; TST mice, i.g. 24 h and 5 h before test, 0.1875 mg/kg",161.70 ± 6.89 s
same,Immobility time (s) (mean ± SEM),"[2]; TST mice, i.g., 0.375 mg/kg",155.68 ± 6.77 s
same,Immobility time (s) (mean ± SEM),"[2]; TST mice, i.g., 0.5 mg/kg",125.30 ± 6.93 s
same,Immobility time (s) (mean ± SEM),"[2]; TST mice, i.g., 0.75 mg/kg",117.33 ± 6.56 s
same,Immobility time (s) (mean ± SEM),"[2]; TST mice, i.g., 1.5 mg/kg",109.27 ± 6.81 s
same,Immobility time (s) (mean ± SEM),"[2]; TST mice, i.g., 3 mg/kg",98.07 ± 5.95 s
same,Immobility time (s) (mean ± SEM),"[2]; TST mice, i.g., 6 mg/kg",89.73 ± 5.02 s
same,Immobility time (s) (mean ± SEM),"[2]; TST mice, i.g., 12 mg/kg",77.67 ± 5.33 s
same,Immobility time (s) (mean ± SEM),"[2]; TST mice, i.g., 24 mg/kg",91.03 ± 7.44 s
same,Immobility time (s) (mean ± SEM),"[2]; TST mice, i.g., 48 mg/kg",100.20 ± 10.46 s
same,Immobility time (s) (mean ± SEM),"[2]; TST mice, i.g., 96 mg/kg",107.68 ± 8.85 s
same,therapeutic index (TI) = TD50÷ED50,"[2]; mice, TST",> 2397
same,therapeutic index (TI) = TD50÷ED50,[3]; CMS mice,> 2160
same,Immobility time (s) (mean ± SEM),"[3]; CMS mice, 2.5 mg/kg",177.00 ± 11.78 s
same,Immobility time (s) (mean ± SEM),"[3]; CMS mice, 5 mg/kg",177.50 ± 12.39 s
same,Immobility time (s) (mean ± SEM),"[3]; CMS mice, 10 mg/kg",170.84 ± 10.48 s
same,Immobility time (s) (mean ± SEM),"[3]; CMS mice, 20 mg/kg",164.95 ± 11.36 s
same,Immobility time (s) (mean ± SEM),[3]; [8],190.90 ± 12.94 s
same,best dose for the antidepressant effect,"[3]; CMS model mice, ORG oral",20 mg/kg
same,ED50,[3]; [9],0.81 mg/kg
same,dose of the best efficacy,"[4]; FST, SD model mice, ORG oral twice",10 mg/kg
same,ED50,"[4]; Mus musculus, FST, SD model mice, ORG oral twice",~3.79 mg/kg
same,therapeutic index = TD50÷ED50,"[4]; SD mice, FST",> 462
same,Immobility time (s) (mean ± SEM),"[4]; SD model mice (72 h sleep deprivation), oral 24 h and 5 h before FST, 1.25 mg/kg",198.00 ± 11.43 s
same,Immobility time (s) (mean ± SEM),"[4]; SD model mice, 24 h and 5 h before FST, 7.5 mg/kg",153.00 ± 11.83 s
same,Immobility time (s) (mean ± SEM),"[4]; SD model mice, oral 24 h and 5 h before FST, 2.5 mg/kg",177.67 ± 15.95 s
same,Immobility time (s) (mean ± SEM),"[4]; SD model mice, oral 24 h and 5 h before FST, 5 mg/kg",160.80 ± 11.64 s
same,Immobility time (s) (mean ± SEM),"[4]; SD model mice, oral 24 h and 5 h before FST, 10 mg/kg",148.23 ± 7.80 s
same,Immobility time (s) (mean ± SEM),"[4]; SD model mice, oral 24 h and 5 h before FST, 20 mg/kg",162.67 ± 9.27 s
same,dose of the best efficacy,"[5]; FST mice, ORG i.g. 24 h and 5 h before test",3 mg/kg
same,Immobility time (s) (mean ± SEM),"[5]; FST mice, i.g. 24 h and 5 h before test, 0.093 mg/kg",169.35 ± 4.32 s
same,Immobility time (s) (mean ± SEM),"[5]; FST mice, i.g., 0.186 mg/kg",155.30 ± 9.19 s
same,Immobility time (s) (mean ± SEM),"[5]; FST mice, i.g., 0.3725 mg/kg",137.57 ± 6.41 s
same,Immobility time (s) (mean ± SEM),"[5]; FST mice, i.g., 0.75 mg/kg",139.45 ± 7.04 s
same,Immobility time (s) (mean ± SEM),"[5]; FST mice, i.g., 1.5 mg/kg",127.23 ± 6.63 s
same,Immobility time (s) (mean ± SEM),"[5]; FST mice, i.g., 3 mg/kg",114.41 ± 6.23 s
same,Immobility time (s) (mean ± SEM),"[5]; FST mice, i.g., 6 mg/kg",129.76 ± 5.99 s
same,Immobility time (s) (mean ± SEM),"[5]; FST mice, i.g., 12 mg/kg",122.71 ± 5.56 s
same,Immobility time (s) (mean ± SEM),"[5]; FST mice, i.g., 24 mg/kg",121.57 ± 6.13 s
same,Immobility time (s) (mean ± SEM),"[5]; FST mice, i.g., 48 mg/kg",135.36 ± 4.60 s
same,Immobility time (s) (mean ± SEM),"[5]; FST mice, i.g., 96 mg/kg",145.34 ± 5.39 s
same,Immobility (% NS) (mean ± SEM),"[5]; FST mice, oral 3 mg/kg twice in 24 h, recorded 5 h after last treatment (Table 7)",64.03 ± 7.20 % NS
same,onset of antidepressant effect after the second administration,"[5]; FST mice, oral 3 mg/kg twice, 19 h apart",2.5 h
same,maintenance of antidepressant effect,"[5]; FST mice, oral 3 mg/kg twice, 19 h apart, time after second administration",at least 72 h
same,Immobility (% NS) (mean ± SEM),"[5]; FST mice, oral 3 mg/kg, 1 administration in 24 h, recorded 5 h after last treatment",83.57 ± 6.66 % NS
same,Immobility (% NS) (mean ± SEM),"[5]; FST mice, oral 3 mg/kg, 2 administrations in 24 h, recorded 5 h after last treatment (Table 6)",64.98 ± 5.96 % NS
same,Immobility (% NS) (mean ± SEM),"[5]; FST mice, oral 3 mg/kg, 3 administrations in 24 h, recorded 5 h after last treatment",65.65 ± 9.67 % NS
same,Immobility (% NS) (mean ± SEM),"[5]; FST mice, oral 3 mg/kg, 4 administrations in 24 h, recorded 5 h after last treatment",89.81 ± 6.50 % NS
same,Immobility (% NS) (mean ± SEM),"[5]; FST mice, oral 3 mg/kg, 5 administrations in 24 h, recorded 5 h after last treatment",91.26 ± 5.93 % NS
same,Immobility (% NS) (mean ± SEM),"[5]; FST mice, oral 6 mg/kg once in 24 h, recorded 5 h after treatment (Table 7)",80.70 ± 4.64 % NS
same,Immobility (% NS) (mean ± SEM),"[5]; FST mice, oral, dose 6 mg/kg (3 mg/kg twice, 19 h apart), 2 weeks after last administration",99.54 ± 5.54 % NS
same,Immobility (% NS) (mean ± SEM),"[5]; FST mice, oral, dose 6 mg/kg (3 mg/kg twice, 19 h apart), 2.5 h after last administration",73.63 ± 4.21 % NS
same,Immobility (% NS) (mean ± SEM),"[5]; FST mice, oral, dose 6 mg/kg (3 mg/kg twice, 19 h apart), 5 h after last administration",71.92 ± 6.05 % NS
same,Immobility (% NS) (mean ± SEM),"[5]; FST mice, oral, dose 6 mg/kg (3 mg/kg twice, 19 h apart), 24 h after last administration",62.83 ± 6.59 % NS
same,Immobility (% NS) (mean ± SEM),"[5]; FST mice, oral, dose 6 mg/kg (3 mg/kg twice, 19 h apart), 72 h after last administration",77.33 ± 6.07 % NS
same,ED50,[5]; Mus musculus,~0.22 mg/kg
same,therapeutic index (TI) = TD50÷ED50,"[5]; mice, FST",> 7955
same,therapeutic index (TI) = TD50÷ED50,[6]; CMS mice,> 415
same,Immobility time (s) (mean ± SEM),"[6]; CMS mice, 5 mg/kg",146.30 ± 11.66 s
same,Immobility time (s) (mean ± SEM),"[6]; CMS mice, 10 mg/kg",145.31 ± 12.41 s
same,Immobility time (s) (mean ± SEM),"[6]; CMS mice, 20 mg/kg",140.69 ± 14.14 s
same,Immobility time (s) (mean ± SEM),[6]; [8],171.20 ± 13.02 s
same,best dose for the antidepressant effect,"[6]; CMS model mice, ORG oral",20 mg/kg
same,ED50,[6]; [9],~4.22 mg/kg
same,Duration of freezing (s) (mean ± S.E.),[7]; 5 mg/kg,203.90 ± 34.09 s
same,Duration of freezing (s) (mean ± S.E.),[7]; 20 mg/kg,100.70 ± 21.78 s
